Data taken from the NIST ThermoML archive (doi:10.1016/j.fluid.2012.11.011).
Numbers after ± are expanded uncertainties.

Assay: osmotic coefficient (dimensionless); mn = molality of the nth substance listed, in mol/kg
Conditions: 298.15 K, Liquid, isopiestic method

Compound CC1(C)S[C@@H]2[C@H](NC(=O)Cc3ccccc3)C(=O)N2[C@H]1C(=O)[O-].[Na+] + O has an osmotic coefficient (2.442 kPa, m1 = 9.082) of 0.796 ± 0.051, an osmotic coefficient (2.452 kPa, m1 = 9.136) of 0.779 ± 0.051 and an osmotic coefficient (2.606 kPa, m1 = 7.249) of 0.749 ± 0.051. The osmotic coefficient (2.623 kPa, m1 = 7.416) was 0.708 ± 0.051, the osmotic coefficient (2.757 kPa, m1 = 5.709) was 0.678 ± 0.051 and the osmotic coefficient (2.901 kPa, m1 = 3.775) was 0.652 ± 0.052. For the same compound, the osmotic coefficient (2.919 kPa, m1 = 3.9) was 0.585 ± 0.052, the osmotic coefficient (2.93 kPa, m1 = 3.429) was 0.636 ± 0.052 and the osmotic coefficient (2.93 kPa, m1 = 3.558) was 0.612 ± 0.052. The osmotic coefficient (2.958 kPa, m1 = 3.303) was 0.582 ± 0.052, the osmotic coefficient (2.986 kPa, m1 = 2.627) was 0.63 ± 0.052 and the osmotic coefficient (2.989 kPa, m1 = 2.675) was 0.61 ± 0.052. The osmotic coefficient (2.989 kPa, m1 = 2.704) was 0.603 ± 0.052, the osmotic coefficient (3.002 kPa, m1 = 2.483) was 0.608 ± 0.052 and the osmotic coefficient (3.006 kPa, m1 = 2.489) was 0.592 ± 0.053. The osmotic coefficient (3.007 kPa, m1 = 2.326) was 0.629 ± 0.053, the osmotic coefficient (3.007 kPa, m1 = 2.366) was 0.62 ± 0.053 and the osmotic coefficient (3.009 kPa, m1 = 2.334) was 0.618 ± 0.053. It also gave an osmotic coefficient (3.033 kPa, m1 = 2.001) of 0.612 ± 0.052, an osmotic coefficient (3.049 kPa, m1 = 1.757) of 0.616 ± 0.053 and an osmotic coefficient (3.05 kPa, m1 = 1.757) of 0.61 ± 0.053. The osmotic coefficient (3.068 kPa, m1 = 1.28) was 0.705 ± 0.053, the osmotic coefficient (3.089 kPa, m1 = 1.073) was 0.672 ± 0.054 and the osmotic coefficient (3.091 kPa, m1 = 1.085) was 0.647 ± 0.054. For the same compound, the osmotic coefficient (3.123 kPa, m1 = 0.457) was 0.903 ± 0.066, the osmotic coefficient (3.126 kPa, m1 = 0.4044) was 0.966 ± 0.066 and the osmotic coefficient (3.17 kPa, m1 = 0) was 1 ± 0.052.

CC1(C)S[C@@H]2[C@H](NC(=O)[C@H](N)c3ccccc3)C(=O)N2[C@H]1C(=O)[O-].[Na+] [Ampicillin Sodium] + O showed an osmotic coefficient (2.467 kPa, m1 = 7.468) of 0.93 ± 0.05, an osmotic coefficient (2.565 kPa, m1 = 6.773) of 0.867 ± 0.05 and an osmotic coefficient (2.654 kPa, m1 = 5.991) of 0.822 ± 0.051. It also gave an osmotic coefficient (2.747 kPa, m1 = 5.699) of 0.696 ± 0.051, an osmotic coefficient (2.901 kPa, m1 = 4.439) of 0.553 ± 0.053 and an osmotic coefficient (2.908 kPa, m1 = 4.261) of 0.562 ± 0.053. The osmotic coefficient (2.926 kPa, m1 = 4.103) was 0.54 ± 0.053, the osmotic coefficient (2.942 kPa, m1 = 3.839) was 0.538 ± 0.053 and the osmotic coefficient (2.982 kPa, m1 = 3.301) was 0.513 ± 0.053. For the same compound, the osmotic coefficient (3.005 kPa, m1 = 2.932) was 0.504 ± 0.053, the osmotic coefficient (3.006 kPa, m1 = 2.958) was 0.499 ± 0.053 and the osmotic coefficient (3.008 kPa, m1 = 2.867) was 0.506 ± 0.053. The osmotic coefficient (3.011 kPa, m1 = 2.855) was 0.498 ± 0.053, the osmotic coefficient (3.031 kPa, m1 = 2.397) was 0.519 ± 0.053 and the osmotic coefficient (3.032 kPa, m1 = 2.398) was 0.514 ± 0.053. For the same compound, the osmotic coefficient (3.052 kPa, m1 = 1.912) was 0.548 ± 0.053, the osmotic coefficient (3.066 kPa, m1 = 1.699) was 0.546 ± 0.053 and the osmotic coefficient (3.076 kPa, m1 = 1.476) was 0.563 ± 0.057. For the same compound, the osmotic coefficient (3.079 kPa, m1 = 1.392) was 0.578 ± 0.054, the osmotic coefficient (3.081 kPa, m1 = 1.369) was 0.575 ± 0.054 and the osmotic coefficient (3.098 kPa, m1 = 1.134) was 0.564 ± 0.054. The osmotic coefficient (3.099 kPa, m1 = 1.093) was 0.576 ± 0.054, the osmotic coefficient (3.102 kPa, m1 = 0.9835) was 0.612 ± 0.075 and the osmotic coefficient (3.103 kPa, m1 = 0.9725) was 0.612 ± 0.055. It also gave an osmotic coefficient (3.103 kPa, m1 = 1.029) of 0.578 ± 0.091, an osmotic coefficient (3.104 kPa, m1 = 1.015) of 0.576 ± 0.055 and an osmotic coefficient (3.111 kPa, m1 = 0.8951) of 0.586 ± 0.056. The osmotic coefficient (3.113 kPa, m1 = 0.8284) was 0.612 ± 0.059, the osmotic coefficient (3.113 kPa, m1 = 0.8511) was 0.591 ± 0.058 and the osmotic coefficient (3.118 kPa, m1 = 0.7369) was 0.617 ± 0.059. For the same compound, the osmotic coefficient (3.119 kPa, m1 = 0.6767) was 0.67 ± 0.059, the osmotic coefficient (3.119 kPa, m1 = 0.6922) was 0.651 ± 0.06 and the osmotic coefficient (3.119 kPa, m1 = 0.7007) was 0.644 ± 0.06. For the same compound, the osmotic coefficient (3.119 kPa, m1 = 0.7507) was 0.597 ± 0.056, the osmotic coefficient (3.13 kPa, m1 = 0.5215) was 0.672 ± 0.058 and the osmotic coefficient (3.131 kPa, m1 = 0.525) was 0.654 ± 0.056. The osmotic coefficient (3.131 kPa, m1 = 0.5325) was 0.648 ± 0.058, the osmotic coefficient (3.132 kPa, m1 = 0.47) was 0.72 ± 0.066 and the osmotic coefficient (3.133 kPa, m1 = 0.4627) was 0.704 ± 0.06. It also gave an osmotic coefficient (3.139 kPa, m1 = 0.3871) of 0.705 ± 0.077, an osmotic coefficient (3.144 kPa, m1 = 0.3032) of 0.75 ± 0.055 and an osmotic coefficient (3.145 kPa, m1 = 0.3044) of 0.714 ± 0.071. It also gave an osmotic coefficient (3.155 kPa, m1 = 0.1575) of 0.856 ± 0.05, an osmotic coefficient (3.162 kPa, m1 = 0.0754) of 0.885 ± 0.12 and an osmotic coefficient (3.17 kPa, m1 = 0) of 1 ± 0.07.
